From ChEMBL document CHEMBL2095176, “GSK Tuberculosis Screening Data”
Values after ≈ are worked out from the molar mass of the structure shown.

The compounds below were run on Mycobacterium tuberculosis variant bovis BCG (assay: microbe, parasite or virus in culture).
Assay type: functional

Row | SMILES | MIC90 [µM]
1 | Cc1cccc(-c2noc(CNC(=O)c3ccccc3CCc3ccccc3)n2)c1 | 6.1 (≈ 2.42 µg/mL)
2 | Cc1ccc2c(c1)c(=O)cc(C(F)(F)F)n2CCNC(=O)c1ccccc1F | 9.4 (≈ 3.69 µg/mL)
3 | O=c1c2snc(-c3ccc(F)cc3)c2ncn1Cc1ccc(F)cc1 | 9.6 (≈ 3.41 µg/mL)
4 | O=C(c1ccc(-c2cccc(OCCN3CCC(c4ccccc4)CC3)c2)cc1)N1CCCC1 | 4.3 (≈ 1.95 µg/mL)
5 | Cc1cc(OCC(=O)NCc2ccccc2)c2cc(Br)ccc2n1 | 4.6 (≈ 1.77 µg/mL)
6 | COCCN(C)Cc1ccc(-c2cc(-c3c[nH]nc3-c3cccc(C)n3)ccn2)cc1 | 6 (≈ 2.48 µg/mL)
7 | COc1ccc(-c2ccc(Nc3cccc(S(=O)(=O)CCNCC4CC4)c3)nc2)cn1 | 5.6 (≈ 2.46 µg/mL)
8 | CC1CN(Cc2cccc(C(=O)NCc3ccc(F)c(-c4cccc(CN5CCN[C@@H](C)C5)c4)c3)c2)C(C)CN1 (some centres not stated) | 8.9 (≈ 4.84 µg/mL)
9 | O=C(NCc1ccc2c(c1)OCO2)c1c(C(F)(F)F)nc2ccccn12 | 3.4 (≈ 1.24 µg/mL)
10 | O=C(C=Cc1cccs1)N1CCN(Cc2ccc(Br)s2)CC1 | 2.8 (≈ 1.11 µg/mL)
11 | COc1ccc2c(ccn2C(=O)OCCC2CCNCC2)c1 | 4.4 (≈ 1.33 µg/mL)
12 | c1ccc(Cc2nnc(Sc3ccnc(N4CCN(c5ccncc5)CC4)n3)n2CCN2CCOCC2)cc1 | 9.9 (≈ 5.38 µg/mL)
13 | NC(=O)c1ccc(-c2cccc(OCCNCCc3cccc(F)c3)c2)cc1 | 3.1 (≈ 1.17 µg/mL)
14 | Cc1ccc(-c2nnc3sc(Cc4cccs4)nn23)cc1 | 5.5 (≈ 1.72 µg/mL)
15 | Cc1ccc2sc(N(CCCn3ccnc3)C(=O)c3cccs3)nc2c1C | 9.5 (≈ 3.77 µg/mL)
16 | CC(=O)Nc1ccc(S(=O)(=O)Nc2ccccc2Nc2ccc(C)cc2)cc1 | 1.9 (≈ 0.751 µg/mL)
17 | CC(=O)c1cccc(NC(=O)N(CCc2cccnc2)Cc2csc(-c3ccc(CNCc4ccccc4)cc3)n2)c1 | 2.6 (≈ 1.5 µg/mL)
18 | Cn1ccnc1CNCCS(=O)(=O)c1cccc(Nc2ccc(-c3cccc(F)c3)cn2)c1 | 4.3 (≈ 2 µg/mL)
19 | C=Cn1cccc1C(=O)N1CCCC(n2cnc3sc(C)c(CC)c3c2=O)C1 (configuration not stated) | 7.3 (≈ 2.89 µg/mL)
20 | Cn1cc(-c2noc(/C=C3/CCN4CCCC[C@@H]4C3)n2)c2ccccc21 | 7.3 (≈ 2.54 µg/mL)
21 | Cc1csc(NC(=O)CSc2nc(C)c(C)n2Cc2ccc(Cl)cc2)c1C#N | 0.9 (≈ 0.388 µg/mL)
22 | Br.CC1(C)NC(N)=NC(=N)N1OCCCOc1ccc(Cl)cc1Cl | 4.5
23 | Oc1ccc(CCNc2nc(NCc3cccc4ccccc34)nc(NC3CCNCC3)n2)cc1 | 10 (≈ 4.7 µg/mL)
24 | Cc1ccc(-n2nc(C)c3c(N4CCCNCC4)nc(C4CC4)nc32)cc1 | 0.8 (≈ 0.29 µg/mL)
25 | O=C(NC1CCSc2ccccc21)c1ccc(S(=O)(=O)N2CCOCC2)cc1 (configuration not stated) | 3.3 (≈ 1.38 µg/mL)

Row | SMILES | MIC90 [µM]
26 | CC(C)N1CCN(c2nc(CCN3CCN(c4cccc(C(F)(F)F)c4C#N)CC3)cs2)CC1 | 5.5 (≈ 2.71 µg/mL)
27 | O=C(Nc1nc(-c2ccccn2)cs1)c1cc2c(F)cccc2s1 | 2.1 (≈ 0.746 µg/mL)
28 | N=c1n(CCC2CCCCC2)nnn1Cc1ccccc1 | 6.1 (≈ 1.74 µg/mL)
29 | CC1=C(C(=O)Nc2ccc3[nH]ncc3c2)C(c2cc(C#Cc3ccccc3)cs2)NC(=O)N1 (configuration not stated) | 2 (≈ 0.907 µg/mL)
30 | CC(C)NCc1ccc(-c2ccc(NS(=O)(=O)c3ccc(F)cc3)cc2)cc1 | 3.6 (≈ 1.43 µg/mL)
31 | O=C(NC12CC3CC(CC(C3)C1)C2)c1cc2ccccc2[nH]1 | 2.5 (≈ 0.736 µg/mL)
32 | Cc1cc(CN2CC[C@H](NC(=O)c3ccc(Cl)c(Cl)c3)C2)ccc1OCCN1CCNCC1 | 7.1 (≈ 3.49 µg/mL)
33 | COc1ccc(-c2nsc(NC(=O)COc3ccc(C)cc3)n2)cc1OC | 4.7 (≈ 1.81 µg/mL)
34 | CC(C)(C)OC(=O)n1cc(CN2CCC3(CC2)OCCc2sccc23)c2ccccc21 | 9.5 (≈ 4.17 µg/mL)
35 | O=C(c1cc2ccccc2o1)N1CCN(Cc2ccc3c(c2)OCO3)CC1 | 2.7 (≈ 0.984 µg/mL)
36 | CC(Sc1nc2ccccc2[nH]1)C(=O)NNC(=O)c1ccncc1 (configuration not stated) | 1.6 (≈ 0.546 µg/mL)
37 | Clc1cc(N2CCNCC2)cc(Cl)c1OCc1ccccc1 | 2.2 (≈ 0.742 µg/mL)
38 | Cc1ccc2[nH]c(SCC(=O)NNC(=O)c3cccs3)nc2c1 | 5.9 (≈ 2.04 µg/mL)
39 | Cn1cc(C(=O)NCCc2ccccc2)c(=O)c2cc(S(=O)(=O)N3CCCC3)ccc21 | 4.6 (≈ 2.02 µg/mL)
40 | Cc1ccc(C2CC(C(F)(F)F)n3ncc(C(=O)NCc4ccc5c(c4)OCO5)c3N2)cc1 (configuration not stated) | 1.9 (≈ 0.871 µg/mL)
41 | COc1ccc(-c2ccc(Nc3cccc(S(=O)(=O)CCN(C)Cc4cccs4)c3)nc2)cn1 | 7.9 (≈ 3.91 µg/mL)
42 | Cc1cc(C(=O)Nc2nc(C)c(C)s2)c2c(C)nn(C(C)C)c2n1 | 5.5 (≈ 1.89 µg/mL)
43 | CC(C)c1ccc(C(=O)Nc2ccc3c(c2)CN(C)CC3)cc1C(F)(F)F | 6.8 (≈ 2.56 µg/mL)
44 | Cc1ccc2nc(C)c(C(=O)NCC(C)C)n2c1 | 4.8 (≈ 1.18 µg/mL)
45 | O=C(Nc1ccccc1-c1nc(Cl)cs1)OCCOC1CCNCC1 | 7.6 (≈ 2.9 µg/mL)
46 | CC(C)CCN(c1ccc(C#N)c(Cl)c1)[C@H]1CCNC1 | 2 (≈ 0.584 µg/mL)
47 | O=C(Nc1nnc(-c2ccc(F)cc2)o1)c1ccc(Cl)cc1 | 6.9 (≈ 2.19 µg/mL)
48 | CC(Oc1ccccc1)C(=O)Nc1nc(-c2ccccn2)cs1 (configuration not stated) | 5.4 (≈ 1.76 µg/mL)
49 | O=C1NN=C(c2ccc3c(c2)OCO3)N[C@H]1Cc1c[nH]c2ccccc12 | 6.2 (≈ 2.16 µg/mL)
50 | CCn1c(-c2nonc2N)nc2c(C#Cc3ccccc3)ncc(OCCCCN)c21 | 8.1 (≈ 3.38 µg/mL)

Row | SMILES | MIC90 [µM]
51 | CSc1ccc(CC(=O)Nc2nc(-c3ccccn3)cs2)cc1 | 9.1 (≈ 3.11 µg/mL)
52 | COc1ccc(CCNc2cc(-c3ccccc3)nc3ncnn23)cc1 | 1 (≈ 0.345 µg/mL)
53 | Cc1cc(/C=C/c2cccc(C(=O)O)c2)cc(Cl)c1OCC1CCCNC1 (configuration not stated) | 6.7 (≈ 2.59 µg/mL)
54 | CC(C)Cc1cn(-c2nc(CN3CCCC3)cs2)c2cc(Cl)ccc12 | 1.9 (≈ 0.711 µg/mL)
55 | COc1cc(C(C)(C)C)ccc1C(=O)Nc1cccc2c1CCC2N (configuration not stated) | 2.7 (≈ 0.914 µg/mL)
56 | O=S(=O)(NCC1CCCO1)c1ccc(-c2ccc(CN3CCOCC3)cc2)s1 (configuration not stated) | 4.1 (≈ 1.73 µg/mL)
57 | c1ccc(-c2nc(NC3CCCCC3)cc(C3CC3)n2)nc1 | 3.7 (≈ 1.09 µg/mL)
58 | O=C(CCC1CCCCC1)Nc1cccc(-c2nnc(-c3ccco3)o2)c1 | 9.2 (≈ 3.36 µg/mL)
59 | O=c1c2sc(-c3ccc(Cl)cc3)cc2ncn1-c1ccc(OCCN2CC[C@@H](F)C2)cc1 | 6.7 (≈ 3.15 µg/mL)
60 | Cc1cc(C)cc(Oc2c(C(C)C)c(=O)[nH]c(=O)n2Cc2cc(N)nc(F)c2)c1 | 9.8 (≈ 3.9 µg/mL)
61 | Cc1cc(Cl)cc(C(=O)c2c(C(C)C)c(=O)[nH]c(=O)n2Cc2cc(F)nc(F)c2)c1 | 0.4 (≈ 0.174 µg/mL)
62 | O=C(COc1ccc(F)cc1Cl)Nc1nc(-c2ccccn2)cs1 | 3.9 (≈ 1.42 µg/mL)
63 | c1ccc(CNc2ncc(-c3ccc(CNCC4CCCO4)cc3)cn2)cc1 (configuration not stated) | 8.8 (≈ 3.3 µg/mL)
64 | O=C(NNC(=O)c1cccs1)c1csc(COc2ccccc2Cl)n1 | 5.3 (≈ 2.09 µg/mL)
65 | O=C(Nc1nnc(-c2ccccc2)o1)c1cccc(C(F)(F)F)c1 | 3.6 (≈ 1.2 µg/mL)
66 | Br.CCc1ccccc1OCCCON1C(=N)N=C(N)NC1(C)C | 2.8
67 | O=C(Nc1nc(-c2ccccn2)cs1)c1cncn1-c1ccccc1 | 4.9 (≈ 1.7 µg/mL)
68 | O=c1oc(-c2ccccc2F)nc2scc(-c3ccccc3)c12 | 4 (≈ 1.29 µg/mL)
69 | COc1cc(CN2CCC(Cc3nc(-c4ccc5c(c4)CCO5)no3)C2)ccc1F (configuration not stated) | 6.7 (≈ 2.74 µg/mL)
70 | Cc1nc(SCC(=O)Nc2sccc2C#N)n(Cc2ccc(Cl)cc2)c1C | 8.1 (≈ 3.38 µg/mL)
71 | CSc1ccc(C(=O)Nc2nc(-c3ccccn3)cs2)cc1 | 4.4 (≈ 1.44 µg/mL)
72 | CN1CCC(COC(=O)c2cn(C)c3ccc(Cl)cc23)CC1 | 8.7 (≈ 2.79 µg/mL)
73 | CN(C)CCOc1ccc2c(c1)N(C(=O)Cc1ccc(Cl)c(Cl)c1)CC2 | 9.9 (≈ 3.89 µg/mL)
74 | CCN(CC)c1ccc(-c2nn3c(-c4n[nH]c5c4CCC5)nnc3s2)cc1 | 7 (≈ 2.66 µg/mL)
75 | COc1ccc(-c2cc(C(=O)NC3CCCCNC3=O)n3nc(C(C)(C)C)cc3n2)cc1 (configuration not stated) | 3.7 (≈ 1.61 µg/mL)

Row | SMILES | MIC90 [µM]
76 | CC(c1nc2ccccc2s1)N(C)C(=O)c1cccc(-n2cnnn2)c1 (configuration not stated) | 5.6 (≈ 2.04 µg/mL)
77 | O=C(Nc1nnc(-c2cc(Cl)ccc2Cl)o1)c1ccc(Br)s1 | 8.9 (≈ 3.73 µg/mL)
78 | O=C(NCCNCc1cc(-c2cncc3ccccc23)cs1)c1ccc(Cl)cc1 | 8.4 (≈ 3.54 µg/mL)
79 | O=S(=O)(c1ccc(Cl)cc1)N1CCC(n2nnc3cc(C(F)(F)F)ccc32)CC1 | 7.8 (≈ 3.47 µg/mL)
80 | Brc1ccc2cc(C3=NCCCO3)[nH]c2c1 | 7.1 (≈ 1.98 µg/mL)
81 | CCn1c(=O)c(=O)[nH]c2cc(C(=O)Nc3ccccc3Nc3ccc(OC)cc3)ccc21 | 0.9 (≈ 0.387 µg/mL)
82 | Br.CCCc1cc(C(C)=O)ccc1OCCCON1C(=N)N=C(N)NC1(C)C | 8.8
83 | NC(=O)c1cccc(-c2ccc(OCCCN3CC[C@@H](OCc4ccccc4)C3)cc2)c1 | 7.5 (≈ 3.23 µg/mL)
84 | COc1ccc(NC(=O)N2CCCN(c3nc4c(C)c(C)ccc4cc3C#N)CC2)cc1 | 5.3 (≈ 2.28 µg/mL)
85 | Cc1cc(Oc2ccc(-n3ccnc3)cc2)nc(N2CCN[C@@H](Cc3ccccc3)C2)n1 | 6.1 (≈ 2.6 µg/mL)
86 | CC(=O)N1CCc2ccc(/C=C/C(=O)O)cc21 | 2.1 (≈ 0.486 µg/mL)
87 | Cc1ccc(N2C(=O)NC(=O)C(=Cc3ccc[nH]3)C2=O)cc1 | 8.8 (≈ 2.6 µg/mL)
88 | Cc1cccc(C)c1CNc1c(C(N)=O)cnc2c(C)cccc12 | 5.9 (≈ 1.88 µg/mL)
89 | COCCCNCCOc1ccc2ccccc2c1Br | 6.8 (≈ 2.3 µg/mL)
90 | Cc1ncc(C(=O)Nc2cccc(-c3cc(-c4c(Cl)cccc4Cl)no3)c2)c(-c2ccccc2)n1 | 1.2 (≈ 0.602 µg/mL)
91 | CC1CC(NC(=O)c2ccc(Oc3ccccc3)cc2)CC(C)(C)C1 (configuration not stated) | 9.5 (≈ 3.21 µg/mL)
92 | O=C(CCCSc1ccccc1)NNC(=O)c1cccs1 | 3.6 (≈ 1.15 µg/mL)
93 | O=C(Nc1nc(-c2cccnc2)cs1)c1ccc(Br)s1 | 1.4 (≈ 0.513 µg/mL)
94 | O=C(NC1CCN(Cc2ccc(F)cc2)C1)c1sccc1-c1cccc(Cl)c1 (configuration not stated) | 7 (≈ 2.9 µg/mL)
95 | NC(=O)c1nnc(Sc2ccnc(N3CCN(c4ccncc4)CC3)n2)n1-c1ccccc1 | 6.3 (≈ 2.9 µg/mL)
96 | COc1ccc(Nc2ccccc2N)cc1 | 1.1 (≈ 0.236 µg/mL)
97 | O=C(Nc1ccc(Oc2ccccc2)cc1)NC1CCCCC1 | 3.9 (≈ 1.21 µg/mL)
